Where a name gives a salt, the structure may show the parent alone. Read-outs that look alike come from different tables or passages of the source. A value given as a limit tells only on which side of the number the result lay.

In assay [1] the target is T1, GABA-AT (Sus scrofa, UniProt P80147).
T1 construct: GABA-AT was isolated from pig brains and purified according to a literature procedure; from tissue; host or cells: pig brain
The assay can be described thus: Coupled enzyme assay, time-dependent inactivation of GABA-AT. Type of assay: biochemical, pig. The procedure:
(§1) Kinetic Studies of Fluorine-Substituted Cyclohexene Analogues.
(§2) hOAT and PYCR1 were expressed, grown, and purified according to literature procedures.4, 5 GABA-AT was isolated from pig brains and purified according to a literature procedure.6 Coupled enzyme assays for GABA-AT, hOAT, Ala-AT, and Asp-AT were carried out according to previous procedures.7, 8

The target in assay [2] is T2, hOAT (Homo sapiens, UniProt P04181).
T2 construct: made in house
T2 sequence (P04181 26-439): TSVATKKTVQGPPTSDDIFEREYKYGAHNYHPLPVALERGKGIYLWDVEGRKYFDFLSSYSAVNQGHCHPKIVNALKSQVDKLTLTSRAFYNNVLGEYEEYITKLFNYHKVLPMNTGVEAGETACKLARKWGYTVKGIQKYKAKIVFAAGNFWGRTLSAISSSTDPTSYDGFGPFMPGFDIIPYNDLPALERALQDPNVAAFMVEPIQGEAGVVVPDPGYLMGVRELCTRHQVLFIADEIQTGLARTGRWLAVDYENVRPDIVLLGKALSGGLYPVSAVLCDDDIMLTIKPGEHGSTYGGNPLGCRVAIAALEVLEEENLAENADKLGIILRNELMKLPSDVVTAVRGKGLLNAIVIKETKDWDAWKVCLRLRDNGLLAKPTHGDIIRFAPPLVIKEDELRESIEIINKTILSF
Kind of assay: Coupled enzyme assay, time-dependent inactivation of hOAT. In kind it is biochemical. The procedure:
as §1, §2

The test system of assay [3] is HCC tumor. Particulars: doses of 0.1 and 1.0 mg/kg; cited from earlier work.
The mark [4] stands for this setting: inactivation of GABA-AT, pH 8.0.
Setting [5] is: inactivation of GABA-AT, pH 8.0, read-out: kinact/KI (converted).
Setting [6] is: read-out: kinact/KI (converted).
[7] abbreviates: GABA-AT, pH 8.0, bound: KI is greater than kobs (max)/ratio (footnote b).
Setting [8] is: GABA-AT, pH 8.0, bound: kinact is greater than maximum kobs in time-dependent assay (footnote b).

T1 sequence (P80147 29-500): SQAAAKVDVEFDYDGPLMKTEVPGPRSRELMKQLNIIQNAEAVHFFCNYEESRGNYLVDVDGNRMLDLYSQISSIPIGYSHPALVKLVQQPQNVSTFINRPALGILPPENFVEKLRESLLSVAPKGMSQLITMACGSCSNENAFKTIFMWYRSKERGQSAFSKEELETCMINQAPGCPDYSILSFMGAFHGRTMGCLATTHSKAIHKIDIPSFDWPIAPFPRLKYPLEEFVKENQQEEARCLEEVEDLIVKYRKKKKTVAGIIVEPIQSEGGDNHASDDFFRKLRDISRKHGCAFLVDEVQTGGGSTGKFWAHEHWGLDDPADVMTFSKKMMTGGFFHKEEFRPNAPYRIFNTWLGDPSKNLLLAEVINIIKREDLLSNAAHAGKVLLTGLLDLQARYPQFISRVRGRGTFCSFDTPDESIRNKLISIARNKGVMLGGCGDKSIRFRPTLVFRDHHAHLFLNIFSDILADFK

With `N[C@H]1C=C(C(=O)O)CC[C@@H]1F` [Compound 8, (3S,4S)-3-Amino-4-fluorocyclohex-1-ene-1-carboxylic acid hydrochloride], the Ki in assay [1] (setting [4]) was 2530 ± 710 µM; in assay [2], 31 ± 7 µM. Besides, the figures for the maximal inactivation rate constant (kinact) in assay [1] (setting [4]) and in assay [2] (read-out: kinact (converted)) were 0.00163 s⁻¹ and 0.00133 s⁻¹, respectively. In addition, the kinact/KI is 0.65 M⁻¹ s⁻¹ in assay [1] (setting [5]) and 42.7 M⁻¹ s⁻¹ in assay [2] (setting [6]).
Consider `N[C@H]1C=C(C(=O)O)CCC1(F)F` [Compound 9, (S)-3-Amino-4,4-difluorocyclohex-1-ene-1-carboxylic acid hydrochloride], for which the Ki in assay [1] (GABA-AT, pH 6.5) was 1100 µM; in assay [1] (setting [7]), above 120 µM; in assay [2] it was 2.3 ± 0.7 µM. In addition, the maximal inactivation rate constant (kinact) – broadly, the rate constant of inactivation at saturating inhibitor – in assay [1] (GABA-AT, pH 6.5) is 0.00333 s⁻¹; in assay [1] (setting [8]) it was above 0.003 s⁻¹; in assay [2] (read-out: kinact (converted)), 0.0008 s⁻¹. The kinact/KI was 3 M⁻¹ s⁻¹ in assay [1] (GABA-AT, pH 6.5, read-out: kinact/KI (converted)); 25.3 M⁻¹ s⁻¹ in assay [1] (GABA-AT, pH 8.0, ratio determined by the slope of kobs vs [I] (footnote b), read-out: kinact/KI (converted)); 339 M⁻¹ s⁻¹ in assay [2] (setting [6]).
With `N[C@H]1CC(C(=O)O)=CC[C@@H]1F` [Compound 10, (4S,5S)-5-Amino-4-fluorocyclohex-1-ene-1-carboxylic acid hydrochloride], the Ki in assay [1] (setting [4]) came to 4280 ± 2050 µM; in assay [2] it was 4380 ± 860 µM. Besides, the inactivation rate constant (kinact) was 0.000467 s⁻¹ in assay [1] (setting [4]) and 0.00125 s⁻¹ in assay [2] (read-out: kinact (converted)). The results for the kinact/KI in assay [1] (setting [5]) and in assay [2] (setting [6]) were 0.108 M⁻¹ s⁻¹ and 0.283 M⁻¹ s⁻¹, respectively.
For the compound `N[C@H]1C[C@@H](C(=O)O)C[C@@H]1F` [Compound 1, (1R,3S,4S)-3-amino-4-fluorocyclopentane-1-carboxylic acid, reference compound], in assay [1] (setting [4]), the Ki was found to be 78 ± 40 µM. Also, in assay [1] (setting [4]), the kinact was 0.000283 s⁻¹. Further, the kinact/KI is 3.67 M⁻¹ s⁻¹ in assay [1] (setting [5]) and 1 M⁻¹ s⁻¹ in assay [2] (setting [6]).
Turning to `N[C@H]1C[C@@H](C(=O)O)CC1=C(C(F)(F)F)C(F)(F)F` [Compound 7, (1S,3S)-3-Amino-4-(hexafluoropropan-2-ylidenyl)cyclopentane-1-carboxylic Acid, reference compound], in assay [3], the “in vivo HCC tumor growth” value is on record as “suppressed” and the “α-fetoprotein levels (a biomarker for HCC)” value was “dramatically reduced”. Besides, in assay [2], the Ki came out at 65 ± 10 µM, the kinact turned out to be 0.00095 ± 5e-05 s⁻¹ and the kinact/KI is 14.5 M⁻¹ s⁻¹.
For `N[C@H]1CC(C(=O)O)=CCC1(F)F` [Compound 11, (S)-5-Amino-4,4-difluorocyclohex-1-ene-1-carboxylic acid hydrochloride], the Ki was above 9630 µM in assay [1] (setting [7]) and 540 ± 17 µM in assay [2]. The inactivation rate constant (kinact) in assay [1] (setting [8]) is above 0.00483 s⁻¹; in assay [2] (read-out: kinact (converted)) it was 0.00138 s⁻¹. Moreover, the kinact/KI was 0.5 M⁻¹ s⁻¹ in assay [1] (pH 8) and 2.5 M⁻¹ s⁻¹ in assay [2] (setting [6]).

Source of the values: US12492164B2, “Fluorine substituted cyclohexene analogues of gamma-aminobutyric acid (GABA)” (Northwestern University, priority 2019, dated 2025).
